Each structure is given as a SMILES string.

We go through one compound from article PMC12673082 (Nature Communications, 2025).

The target of one test is pdP2X7 (Ailuropoda melanoleuca, UniProt G1M6C4). The experiment in a line: Whole-cell patch clamp, ATP-evoked current, transfected HEK293. Type of test: cell-based, giant panda (Ailuropoda melanoleuca). (In general: Patch clamp records ionic current or voltage across a cell membrane.)
A further test concerns the target T1, mP2X7 (Mus musculus, UniProt Q9Z1M0).
T1 sequence (Q9Z1M0 1-595): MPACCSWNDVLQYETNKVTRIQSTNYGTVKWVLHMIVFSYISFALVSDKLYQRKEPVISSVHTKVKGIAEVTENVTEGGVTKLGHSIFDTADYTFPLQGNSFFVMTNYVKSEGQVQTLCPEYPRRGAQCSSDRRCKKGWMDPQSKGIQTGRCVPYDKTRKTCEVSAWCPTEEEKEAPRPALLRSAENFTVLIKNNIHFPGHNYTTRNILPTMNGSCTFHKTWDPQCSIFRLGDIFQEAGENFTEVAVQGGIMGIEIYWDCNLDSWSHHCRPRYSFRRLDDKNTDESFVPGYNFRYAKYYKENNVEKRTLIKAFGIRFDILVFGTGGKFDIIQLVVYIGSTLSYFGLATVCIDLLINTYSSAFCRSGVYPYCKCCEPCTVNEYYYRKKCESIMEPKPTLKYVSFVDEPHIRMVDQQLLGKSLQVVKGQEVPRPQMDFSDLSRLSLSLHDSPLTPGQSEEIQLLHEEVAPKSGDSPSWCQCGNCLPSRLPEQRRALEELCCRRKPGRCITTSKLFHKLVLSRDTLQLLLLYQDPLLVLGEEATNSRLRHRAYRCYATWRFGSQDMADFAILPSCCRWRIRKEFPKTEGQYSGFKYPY
Described as above. The test is classed as cell-based. Conditions: HEK293, read-out: inhibition rate.

A further test has as its target T2, rP2X7 (Rattus norvegicus, UniProt Q64663).
T2 sequence (Q64663 1-595): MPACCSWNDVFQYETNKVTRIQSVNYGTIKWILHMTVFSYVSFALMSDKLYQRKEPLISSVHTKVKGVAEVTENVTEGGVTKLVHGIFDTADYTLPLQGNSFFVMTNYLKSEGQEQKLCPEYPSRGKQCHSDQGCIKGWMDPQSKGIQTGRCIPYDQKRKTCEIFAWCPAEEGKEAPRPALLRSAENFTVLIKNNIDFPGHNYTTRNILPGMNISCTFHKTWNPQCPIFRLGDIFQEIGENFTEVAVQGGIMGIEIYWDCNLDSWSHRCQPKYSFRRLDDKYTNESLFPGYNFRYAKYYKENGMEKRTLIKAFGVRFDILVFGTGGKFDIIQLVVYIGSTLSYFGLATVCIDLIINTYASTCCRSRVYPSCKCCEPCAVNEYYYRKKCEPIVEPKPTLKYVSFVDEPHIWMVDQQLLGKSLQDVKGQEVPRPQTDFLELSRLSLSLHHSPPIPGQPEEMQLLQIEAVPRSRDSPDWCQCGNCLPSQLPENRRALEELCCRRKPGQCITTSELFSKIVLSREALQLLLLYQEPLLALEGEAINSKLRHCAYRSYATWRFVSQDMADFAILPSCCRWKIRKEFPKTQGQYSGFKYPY
Described as above. The test is classed as cell-based. Conditions: HEK293, read-out: inhibition rate.

For the next test, the target named is hP2X3 (Homo sapiens, UniProt P56373). The experiment in a line: Nystatin-perforated patch recording, ATP-evoked current, HEK293. The test is classed as cell-based. Conditions: HEK293, read-out: inhibition rate.
A further test relates to pdP2X7 F103W. The test is described as follows: Whole-cell patch clamp, pdP2X7 mutant. Type of test: cell-based, giant panda. Conditions: pd7F103W, 30 μM.
Another test relates to pdP2X7 Y295A. The experiment in a line: Whole-cell patch clamp, pdP2X7 mutant. The test is classed as cell-based, giant panda. Conditions: pd7Y295A, 30 μM.
In another test the target is pdP2X7 F88A (Ailuropoda melanoleuca, UniProt G1M6C4, F89A). Conditions: pd7 F88A, 10 μM.
The next test deals with pdP2X7 Y298F (Ailuropoda melanoleuca, UniProt G1M6C4, Y299F). Conditions: pd7 Y298F, 10 μM.
The target in the next test is pdP2X7 P96G (Ailuropoda melanoleuca, UniProt G1M6C4, P97G). The test is described as follows: cell-based.
Sequence of pdP2X7 P96G (G1M6C4 2-595 P97G): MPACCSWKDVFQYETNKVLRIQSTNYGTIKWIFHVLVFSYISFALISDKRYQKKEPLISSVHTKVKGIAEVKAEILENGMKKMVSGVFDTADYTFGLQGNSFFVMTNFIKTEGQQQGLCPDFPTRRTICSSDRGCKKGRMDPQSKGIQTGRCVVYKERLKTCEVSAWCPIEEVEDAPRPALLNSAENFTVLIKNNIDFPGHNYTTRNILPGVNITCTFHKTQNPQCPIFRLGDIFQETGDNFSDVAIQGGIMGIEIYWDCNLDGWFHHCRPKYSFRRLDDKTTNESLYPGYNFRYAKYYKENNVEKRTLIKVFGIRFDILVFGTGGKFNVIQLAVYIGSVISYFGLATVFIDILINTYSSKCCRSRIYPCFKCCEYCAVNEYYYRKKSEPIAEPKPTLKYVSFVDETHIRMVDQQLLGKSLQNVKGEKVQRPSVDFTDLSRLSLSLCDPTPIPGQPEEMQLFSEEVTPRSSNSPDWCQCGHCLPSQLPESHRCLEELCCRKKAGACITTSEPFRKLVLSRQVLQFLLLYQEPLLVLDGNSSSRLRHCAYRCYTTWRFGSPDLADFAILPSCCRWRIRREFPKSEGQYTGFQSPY

Sequence of pdP2X7 (G1M6C4 2-595): as the sequence (G1M6C4 2-595 P97G) above, with G96P counted along it
Sequence of pdP2X7 Y298F (G1M6C4 2-606 Y299F): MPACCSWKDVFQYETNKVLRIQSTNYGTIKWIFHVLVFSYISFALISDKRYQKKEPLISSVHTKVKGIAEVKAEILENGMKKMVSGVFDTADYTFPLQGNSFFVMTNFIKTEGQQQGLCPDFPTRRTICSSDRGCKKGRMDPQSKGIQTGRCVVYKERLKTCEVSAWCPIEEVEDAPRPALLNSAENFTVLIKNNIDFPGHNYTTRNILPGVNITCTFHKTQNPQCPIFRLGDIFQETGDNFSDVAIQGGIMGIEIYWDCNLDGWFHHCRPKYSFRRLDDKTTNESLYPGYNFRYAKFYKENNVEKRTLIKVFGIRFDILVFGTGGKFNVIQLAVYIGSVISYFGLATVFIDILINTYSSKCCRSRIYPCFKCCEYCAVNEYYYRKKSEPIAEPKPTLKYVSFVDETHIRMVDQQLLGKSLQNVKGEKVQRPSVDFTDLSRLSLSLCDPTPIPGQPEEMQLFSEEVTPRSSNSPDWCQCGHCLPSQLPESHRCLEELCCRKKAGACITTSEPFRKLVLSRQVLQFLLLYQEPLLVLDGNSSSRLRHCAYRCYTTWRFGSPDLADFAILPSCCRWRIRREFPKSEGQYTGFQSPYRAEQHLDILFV
Sequence of hP2X3 (P56373 whole entry): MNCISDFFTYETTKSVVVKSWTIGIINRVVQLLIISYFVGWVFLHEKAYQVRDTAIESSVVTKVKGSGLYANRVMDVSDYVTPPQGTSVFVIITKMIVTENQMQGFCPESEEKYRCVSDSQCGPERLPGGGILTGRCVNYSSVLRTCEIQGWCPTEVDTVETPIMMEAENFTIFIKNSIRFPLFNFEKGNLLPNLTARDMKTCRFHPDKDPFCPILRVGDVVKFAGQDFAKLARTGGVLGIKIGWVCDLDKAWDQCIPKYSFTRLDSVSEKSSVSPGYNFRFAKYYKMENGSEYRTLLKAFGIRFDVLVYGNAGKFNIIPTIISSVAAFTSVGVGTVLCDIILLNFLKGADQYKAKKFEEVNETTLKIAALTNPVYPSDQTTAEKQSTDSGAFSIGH
Sequence of pdP2X7 F88A (G1M6C4 2-595 F89A): as the sequence (G1M6C4 2-595 P97G) above, with F88A, G96P counted along it

The term IC50 denotes the midpoint of a concentration-inhibition curve. Lower therefore signals greater potency. One may read the inhibition as the percentage by which the read-out fell short of the control. For the compound `C=CC[C@@H]1c2ccc(OC)c(OC)c2CN2CCc3cc4c(cc3[C@H]12)OCO4` [PSFL1191, (13R,13aS)-13-allyl-9,10-dimethoxy-5,8,13,13a-tetrahydro-6H-1,3dioxolo[4,5-g]isoquinolino[3,2-a]isoquinoline], the IC50 at pdP2X7 is 0.754 ± 0.018 µM; at pdP2X7 P96G, 8.06 µM. Further, the “apparent affinity, times lower than that of JNJ-54175446” value on pdP2X7 (pdP2X7) is on record as 10-20 times. Moreover, the figures for the inhibition at 30 µM on mP2X7, on rP2X7 and on hP2X3 were 13.3 ± 3.04%, 4.94 ± 1.43% and 20.6 ± 6.4%, respectively. Also, the inhibition rate in the test with pdP2X7 F103W and in the test on pdP2X7 Y295A was not above 50% throughout. For the same compound, the “inhibitory effect on ATP (1 mM)-induced activation (inhibition ratio)” value at pdP2X7 F88A and on pdP2X7 Y298F was “significantly attenuated” in each case.
